Assay results published in publication PMC4642525, “Conjugates of γ-Carbolines and Phenothiazine as new selective inhibitors of butyrylcholinesterase and blockers of NMDA receptors for Alzheimer Disease” (Scientific Reports, 2015).
“Also recorded” adds a separate entry of the source. Read-outs that look alike come from different tables or passages of the source.

Key:
[1] = target: T1, ifenprodil binding site of NMDA receptor (NR2B subunit containing) (Rattus norvegicus, UniProt P35439+Q00960); experiment: Radioligand binding, [3H]ifenprodil site of NMDA receptor, hippocampal membranes; conditions: for % of [3H]ifenprodil blockade at 100 μM of compound: 100 μM compound
T1 construct: A membrane preparation of hippocampus for radioligand analysis was prepared; from tissue; host or cells: rat hippocampal membranes
Protocol: (§1) Effect of test compounds on the radioligand binding to NMDA receptors was determined by using a modified method as reported earlier by Zhou L-M and coworkers. Two radioactive ligands were used: [^3H] MK-801 (dizocilpine) with a specific activity of 210 Ci/mmol binding to all isolated NMDA receptors, and [^3H] ifenprodil with a specific activity of 79 Ci/mmol binding only to NMDA receptors containing the NR2B subunit.
(§2) A membrane preparation of hippocampus for radioligand analysis was prepared by the techniques described previously. The obtained membrane pellet was resuspended in a work buffer (5 mM HEPES/4.5 mM Tris buffer, pH 7.6) in a ratio of 1:5, and stored in liquid nitrogen. The reaction mixture (the final volume of 0.5 ml) contained 200 μl of the working buffer, 50 μl of 50 nM radioligand solution and 250 μl of the membrane suspension. Nonspecific binding was determined in the presence of 50 μl of […] of unlabeled ligand.
(§3) For binding study, the reaction mixture was incubated at room temperature for 2 hours. After incubation, the samples were filtered through the glass-fiber filters GF/B (Whatman), washed with the work buffer, dried and transferred to scintillation vials to which 5 ml of scintillation fluid was added containing 4g diphenyl oxazole (PPO), 0.2g diphenyloxazoil benzene (POPOP) and 1 liter of toluene. Radioactivity was determined in the scintillation counter TriCarb2800 TR (PerkinElmer, Packard, USA) with counting efficiency of about 65%.
(§4) Investigation of the effect of the tested compounds on the binding of [^3H]

[2] = target: T2, МК-801 binding site of NMDA receptor (Rattus norvegicus, UniProt P35439); experiment: Radioligand binding, [3H]MK-801 site of NMDA receptor, hippocampal membranes; conditions: for % of [3H]МК-801 blockade at 100 μM of compound: 100 μM compound
T2 construct: A membrane preparation of hippocampus for radioligand analysis was prepared; from tissue; host or cells: rat hippocampal membranes
Protocol: as §1, §2, §3, §4

[3] = target: T3, butyrylcholinesterase (BChE, EC 3.1.1.8, from equine serum) (Equus caballus, UniProt P81908); experiment: biochemical; type: biochemical
T3 construct: butyrylcholinesterase (BChE, EC 3.1.1.8, from equine serum); purchased Sigma-Aldrich (Germany); host or cells: equine serum
Protocol: (§5) Acetylcholinesterase (AChE, EC 3.1.1.7, from human erythrocyte), butyrylcholinesterase (BChE, EC 3.1.1.8, from equine serum), carboxylesterase (CaE, EC 3.1.1.1, from porcine liver), acetylthiocholine iodide (ATCh), butylthiocholine iodide (BTCh), 5,5´-dithiobis-(2-nitrobenzoic acid) (DTNB), 4-nitrophenyl acetate (4-NPA), were purchased from Sigma-Aldrich (Germany).
(§6) AChE and BChE activities were measured by the method of Ellman and coworkers as described earlier. The assay solution consisted of 0.1 M K/Na phosphate buffer pH 7.5, 25 °C with the addition of 0.33 mM DTNB, 0.02 unit/mL of AChE or BChE and 1 mM of substrate (ATCh or BTCh, respectively). Assays were carried out with a blank containing all components except ATCh and BTCh in order to account for non-enzymatic reaction.
(§7) The tested compounds were dissolved in DMSO; the incubation mixture contained 2% of the solvent. […] The test compounds were added to the assay solution and preincubated at 25 °C with the enzymes for 10 min followed by the addition of substrate. A parallel control was made for the assay solution with no inhibitor. Measurements were performed in a BioRad Benchmark Plus microplate spectrophotometer (France). Each experiment was performed in triplicate. The results were expressed as the mean ± SEM. The reaction rates in the presence and absence of inhibitor were compared, and the percent of residual enzyme activity due to the presence of test compounds was calculated.

[4] = target: T4, carboxylesterase (CaE, EC 3.1.1.1, from porcine liver) (Sus scrofa, UniProt Q29550); experiment: In vitro CaE inhibition (4-nitrophenyl acetate hydrolysis); type: biochemical; conditions: pH 8.0, 25 °C, 10 min preincubation, read-out: IC50 (μM) ± SEM CaE
T4 sequence (Q29550 19-566): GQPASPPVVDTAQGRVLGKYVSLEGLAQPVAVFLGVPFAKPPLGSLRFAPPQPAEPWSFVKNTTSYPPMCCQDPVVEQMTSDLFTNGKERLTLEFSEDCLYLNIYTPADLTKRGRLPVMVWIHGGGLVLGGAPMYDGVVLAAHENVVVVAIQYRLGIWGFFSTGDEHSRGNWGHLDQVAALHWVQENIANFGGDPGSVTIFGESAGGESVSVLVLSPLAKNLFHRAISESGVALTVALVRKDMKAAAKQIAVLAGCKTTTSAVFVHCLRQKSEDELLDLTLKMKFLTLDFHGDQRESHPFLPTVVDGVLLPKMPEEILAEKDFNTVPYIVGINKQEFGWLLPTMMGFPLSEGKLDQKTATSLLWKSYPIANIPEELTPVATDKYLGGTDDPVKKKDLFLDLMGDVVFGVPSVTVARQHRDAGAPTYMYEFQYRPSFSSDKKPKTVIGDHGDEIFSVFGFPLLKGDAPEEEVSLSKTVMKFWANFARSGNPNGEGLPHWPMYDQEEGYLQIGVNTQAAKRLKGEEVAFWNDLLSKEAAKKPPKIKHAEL
Protocol: as §5
The activity of CaE was determined spectrophotometrically by the release of 4-nitrophenol at 405 nm[51]. The assay solution consisted of 0.1 M K/Na phosphate buffer pH 8.0, 25 °C with the addition of 1 mM 4-nitrophenyl acetate and 0.02 unit/mL of CaE. Assays were carried out with a blank containing all components except CaE.
as §7

[5] = target: T3, butyrylcholinesterase (BChE, EC 3.1.1.8, from equine serum); experiment: biochemical; type: biochemical; conditions: for αKi (non-competitive inhibition constant) / Ki: BChE, means ± SEM, at least three experiments; for Ki: read-out: Ki (competitive inhibition constant); for type of BChE inhibition: Lineweaver-Burk analysis
Protocol: The test compounds were preincubated with the enzymes at 25 °C for 10 min, followed by the addition of the substrates. Parallel controls were made for an assay of the rate of hydrolysis of the same concentrations of substrates in the solutions with no inhibitor. The kinetic parameters of substrate hydrolysis were determined. Measurements were performed in a BioRad Benchmark Plus microplate spectrophotometer (France). Each experiment was performed in triplicate.

[6] = target: T5, Acetylcholinesterase (AChE, EC 3.1.1.7, from human erythrocyte) (Homo sapiens, UniProt P22303); experiment: biochemical; type: biochemical
T5 construct: Acetylcholinesterase (AChE, EC 3.1.1.7, from human erythrocyte); purchased Sigma-Aldrich (Germany); host or cells: human erythrocytes
Protocol: as §5, §6, §7

[7] = rat hippocampal membranes, read-out: [3H]ifenprodil, IC50
[8] = rat hippocampal membranes, read-out: [3H]МК-801, IC50
[9] = equine serum BChE, pH 7.5, 25 °C, 10 min preincubation, read-out: IC50 (μM) ± SEM BChE
[10] = human erythrocyte AChE, pH 7.5, 25 °C, 10 min preincubation, read-out: IC50 (μM) ± SEM AChE

T5 sequence (P22303 other isoform, or with tags, fused parts or gaps): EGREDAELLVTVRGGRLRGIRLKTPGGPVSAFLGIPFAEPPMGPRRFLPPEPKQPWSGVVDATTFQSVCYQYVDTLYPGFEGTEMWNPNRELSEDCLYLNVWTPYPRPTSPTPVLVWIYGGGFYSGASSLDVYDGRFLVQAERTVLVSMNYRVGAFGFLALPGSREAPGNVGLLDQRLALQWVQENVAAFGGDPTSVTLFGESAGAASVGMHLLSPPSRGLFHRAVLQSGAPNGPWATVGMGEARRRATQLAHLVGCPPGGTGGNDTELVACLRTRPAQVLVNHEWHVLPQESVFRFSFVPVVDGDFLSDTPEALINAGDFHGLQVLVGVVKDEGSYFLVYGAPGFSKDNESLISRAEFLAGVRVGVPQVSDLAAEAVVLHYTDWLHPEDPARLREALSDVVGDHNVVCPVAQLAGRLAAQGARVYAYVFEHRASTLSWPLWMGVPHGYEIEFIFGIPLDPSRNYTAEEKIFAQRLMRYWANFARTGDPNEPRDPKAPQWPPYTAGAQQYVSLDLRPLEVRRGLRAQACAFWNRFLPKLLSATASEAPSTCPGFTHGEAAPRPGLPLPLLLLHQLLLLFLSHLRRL
T3 sequence (P81908 whole entry): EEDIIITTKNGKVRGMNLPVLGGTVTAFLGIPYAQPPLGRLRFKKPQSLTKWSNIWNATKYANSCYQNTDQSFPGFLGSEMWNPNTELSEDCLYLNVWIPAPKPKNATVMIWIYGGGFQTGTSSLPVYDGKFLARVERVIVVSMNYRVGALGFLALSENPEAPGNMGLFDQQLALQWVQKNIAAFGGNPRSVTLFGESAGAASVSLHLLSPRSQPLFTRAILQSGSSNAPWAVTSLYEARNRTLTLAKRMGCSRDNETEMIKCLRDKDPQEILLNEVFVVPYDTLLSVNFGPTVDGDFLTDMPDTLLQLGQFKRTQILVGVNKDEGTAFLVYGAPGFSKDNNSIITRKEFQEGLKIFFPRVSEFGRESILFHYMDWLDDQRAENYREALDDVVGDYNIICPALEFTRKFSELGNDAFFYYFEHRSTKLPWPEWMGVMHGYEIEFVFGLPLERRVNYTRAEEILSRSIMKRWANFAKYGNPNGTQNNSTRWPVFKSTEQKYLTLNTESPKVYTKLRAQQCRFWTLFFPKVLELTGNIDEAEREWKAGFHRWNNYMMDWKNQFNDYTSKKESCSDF
T1 sequence (Q00960 27-1482, other chains not shown): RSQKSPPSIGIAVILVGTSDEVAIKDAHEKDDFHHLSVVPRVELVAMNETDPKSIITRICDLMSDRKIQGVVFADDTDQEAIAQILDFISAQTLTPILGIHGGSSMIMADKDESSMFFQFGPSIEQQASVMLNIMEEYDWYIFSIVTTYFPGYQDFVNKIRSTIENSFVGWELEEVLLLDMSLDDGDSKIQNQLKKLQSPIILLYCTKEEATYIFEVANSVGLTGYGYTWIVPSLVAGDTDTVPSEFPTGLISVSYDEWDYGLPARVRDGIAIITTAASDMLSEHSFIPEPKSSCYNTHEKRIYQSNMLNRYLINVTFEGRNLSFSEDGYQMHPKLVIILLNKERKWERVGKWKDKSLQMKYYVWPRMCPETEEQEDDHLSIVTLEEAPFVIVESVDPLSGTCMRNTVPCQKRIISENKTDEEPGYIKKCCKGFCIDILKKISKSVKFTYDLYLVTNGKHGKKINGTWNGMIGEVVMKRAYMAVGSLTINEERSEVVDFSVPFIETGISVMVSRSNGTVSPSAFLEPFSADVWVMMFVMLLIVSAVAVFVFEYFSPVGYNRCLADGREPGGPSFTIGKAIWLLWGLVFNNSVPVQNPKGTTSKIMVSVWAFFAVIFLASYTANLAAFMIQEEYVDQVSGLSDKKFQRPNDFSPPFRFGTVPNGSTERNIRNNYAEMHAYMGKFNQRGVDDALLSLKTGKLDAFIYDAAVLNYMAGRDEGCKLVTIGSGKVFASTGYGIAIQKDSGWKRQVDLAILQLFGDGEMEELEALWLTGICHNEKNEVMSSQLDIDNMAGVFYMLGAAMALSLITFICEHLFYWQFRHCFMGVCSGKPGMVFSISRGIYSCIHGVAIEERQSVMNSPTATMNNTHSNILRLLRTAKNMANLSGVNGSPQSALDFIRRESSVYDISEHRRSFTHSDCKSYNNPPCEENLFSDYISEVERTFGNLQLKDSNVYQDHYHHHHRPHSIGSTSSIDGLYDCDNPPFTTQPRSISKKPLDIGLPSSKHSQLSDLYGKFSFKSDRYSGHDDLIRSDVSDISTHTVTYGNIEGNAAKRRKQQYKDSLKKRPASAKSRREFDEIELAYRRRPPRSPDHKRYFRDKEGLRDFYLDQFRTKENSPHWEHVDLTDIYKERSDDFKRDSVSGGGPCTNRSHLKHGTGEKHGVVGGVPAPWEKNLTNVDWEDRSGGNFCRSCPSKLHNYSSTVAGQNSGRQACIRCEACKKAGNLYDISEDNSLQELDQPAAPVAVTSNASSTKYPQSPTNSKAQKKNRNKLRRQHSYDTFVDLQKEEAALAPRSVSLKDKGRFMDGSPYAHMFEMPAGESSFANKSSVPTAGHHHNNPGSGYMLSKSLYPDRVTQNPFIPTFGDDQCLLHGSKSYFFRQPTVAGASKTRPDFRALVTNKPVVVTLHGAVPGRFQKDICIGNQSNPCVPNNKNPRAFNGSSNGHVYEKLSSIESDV

SMILES | % of [3H]ifenprodil blockade at 100 μM of compound ([1]; rat hippocampal membranes) [%] | IC50 [1, 7] [µM] | IC50 [2, 8] [µM] | IC50 [3, 9] [µM] | IC50 [4] [µM] | αKi (non-competitive inhibition constant) [5] [µM] | Ki [5] [µM] | type of BChE inhibition [5] | % of [3H]МК-801 blockade at 100 μM of compound ([2]; rat hippocampal membranes) [%] | IC50 [6, 10] [µM] | IC50 [1] [µM] | IC50 [2] [µM] | times higher BChE inhibitory activity versus (C-2b) ([3]; comparison of IC50 values, 1-oxopropylene vs 2-hydroxypropylene spacer, same R1, R2) [times] | IC50 ([1]; read-out: [3H]ifenprodil, IC50, rat hippocampal membranes) [µM] | IC50 ([2]; read-out: [3H]МК-801, IC50, rat hippocampal membranes) [µM] | IC50 [3] [µM] | IC50 [6] [µM]
Cc1ccc2c(c1)c1c(n2CC(O)CN2c3ccccc3Sc3ccccc32)CCN(C)C1 (racemic) [C-2a] | 69.7 ± 8.3 | 57.2 ± 6.7 | 84.8 ± 9.2 | 11.7 ± 0.4 | > 200 | – | – | – | – | – | – | – | – | – | – | – | –
CCN1CCc2c(c3cc(F)ccc3n2CC(O)CN2c3ccccc3Sc3ccccc32)C1 (racemic) [C-2b] | 25.7 ± 4.6 | 81.2 ± 6.7 | 106 ± 9.2 | 2.01 ± 0.04 | > 200 | 2.98 ± 0.19 | 0.82 ± 0.02 | mixed-type inhibition; also recorded: mixed-type reversible inhibitors | 24.1 ± 1.9 | – | – | – | – | – | – | – | –
O=[N+]([O-])c1ccc(OP(=O)(O)Oc2ccc([N+](=O)[O-])cc2)cc1 [BNPP, Bis-4-nitrophenyl phosphate, reference compound] | – | – | – | – | 1.8 ± 0.11 | – | – | – | – | – | – | – | – | – | – | – | –
Cc1ccc2c(c1)c1c(n2CCC(=O)N2c3ccccc3Sc3ccccc32)CCN(C)C1 [C-1a] | 42.6 ± 7.2 | 88.4 ± 8.3 | 13.5 ± 3.6 | 62.6 ± 4.3 | > 200 | – | – | – | 80.4 ± 6.6 | > 200 | – | – | – | – | – | – | –
CCN1CCc2c(c3cc(C)ccc3n2CCC(=O)N2c3ccccc3Sc3ccccc32)C1 [C-1b] | 48.1 ± 5.9 | 74.4 ± 4 | 8.5 ± 0.8 | 2.04 ± 0.55 | > 200 | 1.46 ± 0.40 | 0.43 ± 0.05 | – | 95.7 ± 1.0 | > 200 | – | – | – | – | – | – | –
CN1CCc2c(c3cc(F)ccc3n2CCC(=O)N2c3ccccc3Sc3ccccc32)C1 [C-1c] | 50.2 ± 5.2 | 55.1 ± 5.8 | 17.7 ± 2.6 | 1.79 ± 0.28 | > 200 | 1.27 ± 0.41 | 0.48 ± 0.06 | – | 78.7 ± 1.4 | > 200 | – | – | – | – | – | – | –
CN1CCc2c(c3ccccc3n2CCC(=O)N2c3ccccc3Sc3ccccc32)C1 [C-1d] | 60.1 ± 1.4 | 23.4 ± 0.7 | 18.5 ± 0.9 | 1.07 ± 0.12 | > 200 | 1.64 ± 0.20 | 0.37 ± 0.01 | – | 74.9 ± 1.1 | > 200 | – | – | – | – | – | – | –
CCN1CCc2c(c3ccccc3n2CCC(=O)N2c3ccccc3Sc3ccccc32)C1 [C-1e] | 69.4 ± 3.3 | 13.4 ± 2.6 | 14.6 ± 1.9 | 0.52 ± 0.01 | > 200 | 0.65 ± 0.07 | 0.26 ± 0.02 | – | 76.1 ± 1.2 | > 200 | – | – | – | – | – | – | –
CCN1CCc2c(c3cc(F)ccc3n2CCC(=O)N2c3ccccc3Sc3ccccc32)C1 [C-1f] | 78.2 ± 6.8 | – | – | 0.58 ± 0.06 | – | 0.52 ± 0.04 | 0.17 ± 0.02 | mixed-type inhibition; also recorded: mixed-type reversible inhibitors | 82.4 ± 7.3 | > 200 | 8.8 ± 1.8 | 15.8 ± 1.8 | 3.5 | – | – | – | –
CCc1ccc2c(c1)c1c(n2CCC(=O)N2c3ccccc3Sc3ccccc32)CCN(C)C1 [C-1g] | 64.6 ± 5.2 | 15.4 ± 3.9 | 13.2 ± 2.2 | 1.36 ± 0.06 | > 200 | 0.99 ± 0.04 | 0.46 ± 0.02 | – | 89.4 ± 4.6 | > 100 | – | – | – | – | – | – | –
CC(C)c1ccc2c(c1)c1c(n2CCC(=O)N2c3ccccc3Sc3ccccc32)CCN(C)C1 [C-1h] | – | 85.8 ± 7.2 | 17.8 ± 2 | 2.79 ± 0.09 | 120 ± 13 | 1.94 ± 0.01 | – | non-competitive mechanism | 80.3 ± 6.9 | > 100 | – | – | – | – | – | – | –
COc1ccc2c(c1)c1c(n2C[C@@H](O)CN2c3ccccc3Sc3ccccc32)CCN(C)C1 [C-2c] | 47.4 ± 6.6 | – | – | 0.39 ± 0.02 | – | 0.89 ± 0.18 | 0.25 ± 0.04 | – | 19.1 ± 2.2 | – | – | – | – | 115 ± 9.3 | 113 ± 11.1 | – | –
CN(C)c1ccc2nc3ccc(=[N+](C)C)cc-3sc2c1 [MB, methylene blue, reference compound] | – | – | – | – | – | 0.64 ± 0.02 | – | – | 2.0 ± 4.0 | – | – | – | – | – | – | – | –
Cc1ccc2c(c1)c1c(n2CCc2ccc(C)nc2)CCN(C)C1 [dimebon, reference compound] | 34.1 ± 4.9 | 82.4 ± 4.1 | 91.5 ± 7.7 | – | – | – | – | – | 27.8 ± 3.9 | – | – | – | – | – | – | 5.76 ± 0.51 | 36.3 ± 5.8
c1ccc2c(c1)Nc1ccccc1S2 [phenothiazine] | – | – | – | – | – | – | – | – | – | – | – | – | – | – | – | 137 ± 31 | –
